Laboratory results as given in PMC8151276, “An Integrated Approach toward NanoBRET Tracers for Analysis of GPCR Ligand Engagement” (Molecules, 2021).

Columns and labels:
Type in all cases: binding
[1] = molecular target: T1, GRPR (Homo sapiens, UniProt P30550); experiment: NanoBRET screen HiBiT-GRPR in HEK293
T1 construct: purchased Promega (in-house HiBiT-GPCR construct library, NanoBRET)
Experimental: (§1) Each tracer candidate was screened across the entire library of HiBiT-GPCR constructs using NanoBRET as the detection modality. As depicted in Figure 4A, the specificity of interactions was evaluated through decrease in BRET due to competitive displacement of a bound tracer by excess parental compound. Each tracer was analyzed for binding to each HiBiT-GPCR fusion in the absence and in the presence of competing parental compound. Briefly, HEK293 cells were transfected with HiBiT-GPCR constructs diluted into promoterless DNA to reduce expression and maximize translocation to the cell surface. Each tracer candidate was then screened at concentrations of 1 μM and 0.1 μM across cells expressing these fusions. Cells were treated for 1.5 h with tracer either alone or in the presence of 20 μM competing parental compound (i.e., control). BRET was measured upon addition of purified LgBiT and subsequent complementation with HiBiT genetically fused to a GPCR. The specificity of interactions was assessed through a decrease in BRET signal due to competitive displacement of the bound tracer. To further gauge the robustness of these interactions, the fold response over the control (i.e., BRETtracer/BRETcontrol) was calculated. We chose a 1.5-fold response, which translates to ≥7-fold signal over noise as the minimal threshold required to score an interaction as positive. […]. Below we highlight the screening results obtained for our exemplary fluorescent tracers based on Clozapine, Amitriptyline and AZD1283.
(§2) HiBiT-GPCR DNA constructs were diluted in 10 mM Tris pH 8 to a final concentration of 0.01 μg/μL, arrayed in 96-well plates and stored at −20 °C. For transfection, HEK293 cells were suspended in Opti-MEM (without phenol red) supplemented with 2% fetal bovine serum (Seradigm) and 100 units/mL penicillin–streptomycin (Gibco) at a final concentration of 220,000 cells/mL and dispensed into white 96-well plates at 90 μL/well. Subsequent transfections and screens were carried using an Agilent Bravo Automated Liquid Handling Platform. First, the 96-well HiBiT DNA arrays were diluted 25-fold in Opti-MEM (without serum or phenol red) to a final concentration of 0.0004 μg/μL and 20 μL of the diluted DNAs were transferred into new 96-well plates. Next, promoterless carrier DNA (1 μg/μL) was diluted 25-fold (0.04 μg/μL) and then dispensed into the diluted arrays at 20 μL/well. Following brief mixing, Viafect transfection reagent (Promega) diluted 16-fold into Opti-MEM was dispensed into the plates at 40 μL/well. After mixing by pipetting, plates were incubated for 10 min on the pipetting station deck. The DNA-transfection reagent complexes were then added to plates containing cells. To facilitate the screen, 10 μL of DNA-transfection reagent complexes were added in duplicates to the top 4 and bottom 4 rows, resulting in two identical 48-well arrays per plate. Plates with transfected cells were incubated for 18–20 h at 37 °C/5% CO2. A screen of each tracer across the entire library using two different concentrations requires duplicate plates of transfected cells. Depending on the number of tracers being screened, transfections can be scaled up using the same ratios. The next day, for each tracer, four 20× screening solutions in tracer dilution buffer (Promega) were prepared: two duplicates at final concentration of 20 μM and two duplicates at a final concentration of 2 μM. A competing unmodified compound was added to one of each duplicate at a final concentration of 400 μM. The four resulting solutions were diluted 4-fold in Opti-MEM without serum or phenol red to generate 5× solutions (5 µM and 0.5 µM tracer +/− 100 μM competing compound). To screen the library, a BioTek MultiFlo FX liquid dispenser was used to dispense 22.5 µL of tracer solution to the top 4 rows and 22.5 µL tracer + competing compound solution to the 4 bottom rows. Plates were briefly mixed on an orbital shaker and incubated for 1.5 h at room temperature. […]

[2] = molecular target: T2, FZD2 (Homo sapiens, UniProt Q14332); experiment: NanoBRET screen HiBiT-FZD2 in HEK293
T2 construct: purchased Promega (in-house HiBiT-GPCR construct library, NanoBRET)
Experimental: as §1, §2

[3] = molecular target: T3, GRM1 (Homo sapiens, UniProt Q13255); experiment: NanoBRET screen HiBiT-GRM1 in HEK293
T3 construct: purchased Promega (in-house HiBiT-GPCR construct library, NanoBRET)
Experimental: as §1, §2

[4] = molecular target: T4, CCR1 (Homo sapiens, UniProt P32246); experiment: NanoBRET screen HiBiT-CCR1 in HEK293
T4 construct: purchased Promega (in-house HiBiT-GPCR construct library, NanoBRET)
T4 sequence (P32246 1-355): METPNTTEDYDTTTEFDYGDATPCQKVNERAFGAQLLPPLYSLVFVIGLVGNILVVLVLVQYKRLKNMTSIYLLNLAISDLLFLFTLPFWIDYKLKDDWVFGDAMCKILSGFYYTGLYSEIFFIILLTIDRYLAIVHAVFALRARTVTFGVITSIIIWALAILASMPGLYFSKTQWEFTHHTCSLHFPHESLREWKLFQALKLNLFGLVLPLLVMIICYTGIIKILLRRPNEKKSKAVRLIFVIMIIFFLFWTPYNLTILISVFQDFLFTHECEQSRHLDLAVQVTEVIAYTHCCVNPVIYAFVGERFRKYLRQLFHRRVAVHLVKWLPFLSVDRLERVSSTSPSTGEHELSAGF
Experimental: as §1, §2

[5] = molecular target: T5, PTGER4 (Homo sapiens, UniProt P35408); experiment: NanoBRET screen HiBiT-PTGER4 in HEK293
T5 construct: purchased Promega (in-house HiBiT-GPCR construct library, NanoBRET)
Experimental: as §1, §2

[6] = molecular target: T6, PTAFR (Homo sapiens, UniProt P25105); experiment: NanoBRET screen HiBiT-PTAFR in HEK293
T6 construct: purchased Promega (in-house HiBiT-GPCR construct library, NanoBRET)
Experimental: as §1, §2

[7] = molecular target: T7, RXFP2 (Homo sapiens, UniProt Q8WXD0); experiment: NanoBRET screen HiBiT-RXFP2 in HEK293
T7 construct: purchased Promega (in-house HiBiT-GPCR construct library, NanoBRET)
Experimental: as §1, §2

T6 sequence (P25105 whole entry): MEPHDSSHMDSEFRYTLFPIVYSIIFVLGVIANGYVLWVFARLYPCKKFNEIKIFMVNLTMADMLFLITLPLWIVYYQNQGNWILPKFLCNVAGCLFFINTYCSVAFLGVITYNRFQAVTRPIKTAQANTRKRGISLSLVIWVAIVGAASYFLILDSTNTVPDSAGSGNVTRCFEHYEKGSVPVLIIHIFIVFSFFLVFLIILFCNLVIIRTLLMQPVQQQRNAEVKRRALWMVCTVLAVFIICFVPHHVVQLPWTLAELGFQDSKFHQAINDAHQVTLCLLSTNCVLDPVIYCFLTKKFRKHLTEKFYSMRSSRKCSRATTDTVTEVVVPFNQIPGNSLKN
T2 sequence (Q14332 24-565): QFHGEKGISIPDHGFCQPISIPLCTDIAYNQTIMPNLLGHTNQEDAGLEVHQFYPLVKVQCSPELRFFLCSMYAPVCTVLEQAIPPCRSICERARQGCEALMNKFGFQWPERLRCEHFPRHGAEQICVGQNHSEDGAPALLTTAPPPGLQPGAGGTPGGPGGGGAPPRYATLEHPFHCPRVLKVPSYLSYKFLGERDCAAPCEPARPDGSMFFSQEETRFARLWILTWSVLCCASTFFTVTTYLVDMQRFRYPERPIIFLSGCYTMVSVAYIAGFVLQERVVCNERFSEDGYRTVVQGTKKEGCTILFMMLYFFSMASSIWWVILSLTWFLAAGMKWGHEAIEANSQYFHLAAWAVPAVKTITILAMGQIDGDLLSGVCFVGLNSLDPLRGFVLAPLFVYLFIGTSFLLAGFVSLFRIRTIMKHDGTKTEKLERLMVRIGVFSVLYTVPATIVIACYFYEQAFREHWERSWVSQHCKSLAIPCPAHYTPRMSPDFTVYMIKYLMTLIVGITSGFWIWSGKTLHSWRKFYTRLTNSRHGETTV
T1 sequence (P30550 whole entry): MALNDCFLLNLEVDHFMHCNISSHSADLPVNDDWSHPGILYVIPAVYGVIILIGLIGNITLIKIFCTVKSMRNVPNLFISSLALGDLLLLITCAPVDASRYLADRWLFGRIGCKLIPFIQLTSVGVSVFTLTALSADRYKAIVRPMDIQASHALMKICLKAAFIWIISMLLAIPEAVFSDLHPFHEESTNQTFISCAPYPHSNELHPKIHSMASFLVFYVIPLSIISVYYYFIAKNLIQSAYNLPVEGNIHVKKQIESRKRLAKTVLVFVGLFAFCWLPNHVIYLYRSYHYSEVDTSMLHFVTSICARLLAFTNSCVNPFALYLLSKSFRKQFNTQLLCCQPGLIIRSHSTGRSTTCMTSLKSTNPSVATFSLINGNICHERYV
T7 sequence (Q8WXD0 whole entry): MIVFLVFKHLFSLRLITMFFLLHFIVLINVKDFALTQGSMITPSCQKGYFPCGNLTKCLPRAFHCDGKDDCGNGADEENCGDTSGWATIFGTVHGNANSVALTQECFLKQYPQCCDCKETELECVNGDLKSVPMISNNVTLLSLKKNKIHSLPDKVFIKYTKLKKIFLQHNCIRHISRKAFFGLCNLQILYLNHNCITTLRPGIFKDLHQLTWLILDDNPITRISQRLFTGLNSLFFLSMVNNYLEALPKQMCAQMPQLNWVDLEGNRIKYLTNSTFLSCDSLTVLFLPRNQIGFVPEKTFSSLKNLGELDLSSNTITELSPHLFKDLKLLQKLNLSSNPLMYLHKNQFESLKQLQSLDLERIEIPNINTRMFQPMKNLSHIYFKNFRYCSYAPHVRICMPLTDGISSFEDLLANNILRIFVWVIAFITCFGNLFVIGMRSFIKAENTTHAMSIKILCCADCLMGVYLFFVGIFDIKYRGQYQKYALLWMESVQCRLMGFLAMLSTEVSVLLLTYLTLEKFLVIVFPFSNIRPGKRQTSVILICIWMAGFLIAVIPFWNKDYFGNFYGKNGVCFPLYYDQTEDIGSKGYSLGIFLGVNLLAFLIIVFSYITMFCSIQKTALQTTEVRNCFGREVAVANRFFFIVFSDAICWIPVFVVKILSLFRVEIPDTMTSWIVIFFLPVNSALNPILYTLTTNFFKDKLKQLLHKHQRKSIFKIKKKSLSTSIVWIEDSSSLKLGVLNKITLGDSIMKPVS
T3 sequence (Q13255 19-1194): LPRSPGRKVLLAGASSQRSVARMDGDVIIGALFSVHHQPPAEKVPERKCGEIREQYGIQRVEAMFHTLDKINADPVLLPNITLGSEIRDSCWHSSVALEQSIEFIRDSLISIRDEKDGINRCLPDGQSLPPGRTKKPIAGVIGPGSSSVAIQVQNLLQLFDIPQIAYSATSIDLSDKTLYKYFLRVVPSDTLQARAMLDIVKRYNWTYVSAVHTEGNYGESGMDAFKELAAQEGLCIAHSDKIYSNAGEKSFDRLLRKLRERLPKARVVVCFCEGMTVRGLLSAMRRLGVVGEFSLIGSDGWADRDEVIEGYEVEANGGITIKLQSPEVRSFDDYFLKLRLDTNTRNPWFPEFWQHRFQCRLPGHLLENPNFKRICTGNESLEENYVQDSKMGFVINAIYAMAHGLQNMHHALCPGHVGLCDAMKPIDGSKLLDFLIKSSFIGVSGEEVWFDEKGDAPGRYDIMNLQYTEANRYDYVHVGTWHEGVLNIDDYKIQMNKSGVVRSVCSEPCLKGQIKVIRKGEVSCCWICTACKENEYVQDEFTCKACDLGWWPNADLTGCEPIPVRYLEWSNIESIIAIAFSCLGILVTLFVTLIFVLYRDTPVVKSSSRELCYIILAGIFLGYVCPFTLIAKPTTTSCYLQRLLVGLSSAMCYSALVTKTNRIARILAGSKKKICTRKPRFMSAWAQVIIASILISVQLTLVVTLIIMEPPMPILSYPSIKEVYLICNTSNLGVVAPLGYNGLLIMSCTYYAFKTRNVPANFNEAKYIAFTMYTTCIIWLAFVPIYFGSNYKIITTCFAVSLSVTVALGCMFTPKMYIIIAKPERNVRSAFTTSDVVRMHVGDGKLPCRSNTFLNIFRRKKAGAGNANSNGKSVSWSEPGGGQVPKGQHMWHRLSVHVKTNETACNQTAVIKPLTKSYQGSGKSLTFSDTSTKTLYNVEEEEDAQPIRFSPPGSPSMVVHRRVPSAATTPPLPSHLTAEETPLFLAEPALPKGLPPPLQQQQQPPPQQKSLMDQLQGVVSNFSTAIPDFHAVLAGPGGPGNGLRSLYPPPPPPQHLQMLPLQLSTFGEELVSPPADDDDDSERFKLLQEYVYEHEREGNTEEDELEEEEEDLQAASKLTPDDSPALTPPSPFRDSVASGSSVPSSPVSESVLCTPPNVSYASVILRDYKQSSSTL
T5 sequence (P35408 whole entry): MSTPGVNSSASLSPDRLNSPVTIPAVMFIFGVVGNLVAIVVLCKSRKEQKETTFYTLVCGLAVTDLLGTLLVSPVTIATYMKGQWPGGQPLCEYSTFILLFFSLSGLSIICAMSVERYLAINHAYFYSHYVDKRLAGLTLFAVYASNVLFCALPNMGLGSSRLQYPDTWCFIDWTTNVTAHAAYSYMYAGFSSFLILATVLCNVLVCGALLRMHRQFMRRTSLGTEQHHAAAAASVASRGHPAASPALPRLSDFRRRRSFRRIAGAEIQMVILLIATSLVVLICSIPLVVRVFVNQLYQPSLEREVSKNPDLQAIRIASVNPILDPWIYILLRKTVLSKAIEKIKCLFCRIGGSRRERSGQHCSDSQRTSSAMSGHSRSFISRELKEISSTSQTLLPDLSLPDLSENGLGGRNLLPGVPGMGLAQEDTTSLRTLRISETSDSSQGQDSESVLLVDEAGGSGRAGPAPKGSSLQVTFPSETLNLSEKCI

Structure (SMILES): O=C(CCc1ccc2n1[B-](F)(F)[N+]1=C(c3ccc[nH]3)C=CC1=C2)NCc1ccc(C(=O)NCCOCCC(=O)N[C@@H]2CC[C@@]3(O)[C@H]4Cc5ccc(O)c6c5[C@@]3(CCN4CC3CC3)[C@H]2O6)cc1 [Naltrexone-3-NB590]
- NanoBRET Fold Response ([1]; GRPR, tracer 0.1μM): 0.91
- NanoBRET Fold Response ([1]; GRPR, tracer 1μM): 0.92
- NanoBRET Fold Response ([2]; FZD2, tracer 0.1μM): 0.84
- NanoBRET Fold Response ([2]; FZD2, tracer 1μM): 0.88
- NanoBRET Fold Response ([3]; GRM1, tracer 0.1μM): 0.93
- NanoBRET Fold Response ([3]; GRM1, tracer 1μM): 0.75
- NanoBRET Fold Response ([4]; CCR1, tracer 0.1μM): 1.03
- NanoBRET Fold Response ([4]; CCR1, tracer 1μM): 0.66
- NanoBRET Fold Response ([5]; PTGER4, tracer 0.1μM): 0.94
- NanoBRET Fold Response ([5]; PTGER4, tracer 1μM): 1.01
- NanoBRET Fold Response ([6]; PTAFR, tracer 0.1μM): 1.24
- NanoBRET Fold Response ([6]; PTAFR, tracer 1μM): 0.78
- NanoBRET Fold Response ([7]; RXFP2, tracer 0.1μM): 1.31
- NanoBRET Fold Response ([7]; RXFP2, tracer 1μM): 0.72

Structure (SMILES): CN1CCN(C2=Nc3cc(Cl)ccc3N(CC(=O)NCCOCCOCCOCCOCCNC(=O)CCc3ccc4n3[B-](F)(F)[N+]3=C(c5ccc[nH]5)C=CC3=C4)c3ccccc32)CC1 [Clozapine-c-2-NB590]
- NanoBRET Fold Response ([1]; GRPR, 0.1μM tracer): 1.01
- NanoBRET Fold Response ([1]; GRPR, 1μM tracer): 0.99
- NanoBRET Fold Response ([2]; FZD2, 0.1μM tracer): 1.01
- NanoBRET Fold Response ([2]; FZD2, 1μM tracer): 0.90
- NanoBRET Fold Response ([3]; GRM1, 0.1μM tracer): 0.99
- NanoBRET Fold Response ([3]; GRM1, 1μM tracer): 1.00
- NanoBRET Fold Response ([4]; CCR1, 0.1μM tracer): 1.05
- NanoBRET Fold Response ([4]; CCR1, 1μM tracer): 0.98
- NanoBRET Fold Response ([5]; PTGER4, 0.1μM tracer): 1.00
- NanoBRET Fold Response ([5]; PTGER4, 1μM tracer): 1.05
- NanoBRET Fold Response ([6]; PTAFR, 0.1μM tracer): 1.01
- NanoBRET Fold Response ([6]; PTAFR, 1μM tracer): 1.02
- NanoBRET Fold Response ([7]; RXFP2, 0.1μM tracer): 0.62
- NanoBRET Fold Response ([7]; RXFP2, 1μM tracer): 1.17

Structure (SMILES): O=C(CCOCCOCCOCCOCCNC(=O)CCc1ccc2n1[B-](F)(F)[N+]1=C(c3ccc[nH]3)C=CC1=C2)NCCCN1CCN(C2=Nc3cc(Cl)ccc3Nc3ccccc32)CC1 [Clozapine-a-2-NB590]
- NanoBRET Fold Response ([1]; GRPR, 0.1μM tracer): 1.11
- NanoBRET Fold Response ([1]; GRPR, 1μM tracer): 1.37
- NanoBRET Fold Response ([2]; FZD2, 0.1μM tracer): 1.04
- NanoBRET Fold Response ([2]; FZD2, 1μM tracer): 1.02
- NanoBRET Fold Response ([3]; GRM1, 0.1μM tracer): 1.42
- NanoBRET Fold Response ([3]; GRM1, 1μM tracer): 0.90
- NanoBRET Fold Response ([4]; CCR1, 0.1μM tracer): 1.03
- NanoBRET Fold Response ([4]; CCR1, 1μM tracer): 0.94
- NanoBRET Fold Response ([5]; PTGER4, 0.1μM tracer): 1.02
- NanoBRET Fold Response ([5]; PTGER4, 1μM tracer): 1.06
- NanoBRET Fold Response ([6]; PTAFR, 0.1μM tracer): 1.01
- NanoBRET Fold Response ([6]; PTAFR, 1μM tracer): 0.99
- NanoBRET Fold Response ([7]; RXFP2, 0.1μM tracer): 1.23
- NanoBRET Fold Response ([7]; RXFP2, 1μM tracer): 1.14

Structure (SMILES): CCOC(=O)c1cc(C#N)c(N2CCC(C(=O)NS(=O)(=O)Cc3ccccc3/C=C/C(=O)NCCNC(=O)CCc3ccc4n3[B-](F)(F)[N+]3=C(c5ccc[nH]5)C=CC3=C4)CC2)nc1C [AZD1283-1-NB590]
- NanoBRET Fold Response ([1]; GRPR, 0.1μM): 1.01
- NanoBRET Fold Response ([1]; GRPR, 1μM): 1.01
- NanoBRET Fold Response ([2]; FZD2, 0.1μM): 1.04
- NanoBRET Fold Response ([2]; FZD2, 1μM): 1.11
- NanoBRET Fold Response ([3]; GRM1, 0.1μM): 1.28
- NanoBRET Fold Response ([3]; GRM1, 1μM): 0.71
- NanoBRET Fold Response ([4]; CCR1, 0.1μM): 1.05
- NanoBRET Fold Response ([4]; CCR1, 1μM): 1.03
- NanoBRET Fold Response ([5]; PTGER4, 0.1μM): 1.03
- NanoBRET Fold Response ([5]; PTGER4, 1μM): 1.02
- NanoBRET Fold Response ([6]; PTAFR, 0.1μM): 1.01
- NanoBRET Fold Response ([6]; PTAFR, 1μM): 1.17
- NanoBRET Fold Response ([7]; RXFP2, 0.1μM): 1.25
- NanoBRET Fold Response ([7]; RXFP2, 1μM): 1.29

Structure (SMILES): COc1ccc2[nH]c(-c3ccc(CNC(=O)CCOCCOCCOCCOCCNC(=O)CCc4ccc5n4[B-](F)(F)[N+]4=C(c6ccc[nH]6)C=CC4=C5)cc3)c(CCNC(C)=O)c2n1 [AzomelatoninICO9-2-NB590]
- NanoBRET Fold Response ([1]; 0.1μM tracer): 0.84
- NanoBRET Fold Response ([1]; 1μM tracer): 1.22
- NanoBRET Fold Response ([2]; 0.1μM tracer): 0.99
- NanoBRET Fold Response ([2]; 1μM tracer): 1.11
- NanoBRET Fold Response ([3]; 0.1μM tracer): 0.66
- NanoBRET Fold Response ([3]; 1μM tracer): 1.33
- NanoBRET Fold Response ([4]; 0.1μM tracer): 1.12
- NanoBRET Fold Response ([4]; 1μM tracer): 1.21
- NanoBRET Fold Response ([5]; 0.1μM tracer): 0.97
- NanoBRET Fold Response ([5]; 1μM tracer): 0.97
- NanoBRET Fold Response ([6]; 0.1μM tracer): 1.01
- NanoBRET Fold Response ([6]; 1μM tracer): 0.99
- NanoBRET Fold Response ([7]; 0.1μM tracer): 1.23
- NanoBRET Fold Response ([7]; 1μM tracer): 0.59

Structure (SMILES): CN(CCC=C1c2ccccc2CCc2ccccc21)C(=O)CCOCCOCCOCCOCCNC(=O)CCc1ccc2n1[B-](F)(F)[N+]1=C(c3ccc[nH]3)C=CC1=C2 [Amitriptyline-e-2-NB590]
- NanoBRET Fold Response ([2]; tracer at 1μM): 1.03
- NanoBRET Fold Response ([4]; tracer at 1μM): 0.99
- NanoBRET Fold Response ([6]; tracer at 1μM): 1.06

Structure (SMILES): CN(C)CCC=C1c2ccccc2CCc2ccc(C(=O)NCCNC(=O)CCOCCOCCOCCOCCNC(=O)CCc3ccc4n3[B-](F)(F)[N+]3=C(c5ccc[nH]5)C=CC3=C4)cc21 [Amitriptyline-a-2-NB590]
- NanoBRET Fold Response ([1]; tracer at 0.1μM): 1.12
- NanoBRET Fold Response ([1]; tracer at 1μM): 0.98
- NanoBRET Fold Response ([2]; tracer at 0.1μM): 1.04
- NanoBRET Fold Response ([2]; tracer at 1μM): 1.00
- NanoBRET Fold Response ([4]; tracer at 0.1μM): 0.99
- NanoBRET Fold Response ([4]; tracer at 1μM): 1.07
- NanoBRET Fold Response ([6]; tracer at 0.1μM): 1.10
- NanoBRET Fold Response ([6]; tracer at 1μM): 0.90
